The text below walks through data of patent US20240384268A1, “Oligonucleotides” (Hudson Institute of Medical Research, priority 2021, published 2024).

In the series the target is cGAS (Homo sapiens, UniProt Q8N884). Put plainly: ISD70-driven IP-10 (and IFN-β) production in THP-1 cells, ELISA. The class given is cell-based. The arrangement: endogenous in cells; host or cells: THP-1 (undifferentiated). The settings on record: MOE-modified ASO at 100 nM; averaged IP-10 levels relative to ISD70 condition. (ELISA stands for enzyme-linked immunosorbent assay.)
Sequence of cGAS (Q8N884 whole entry): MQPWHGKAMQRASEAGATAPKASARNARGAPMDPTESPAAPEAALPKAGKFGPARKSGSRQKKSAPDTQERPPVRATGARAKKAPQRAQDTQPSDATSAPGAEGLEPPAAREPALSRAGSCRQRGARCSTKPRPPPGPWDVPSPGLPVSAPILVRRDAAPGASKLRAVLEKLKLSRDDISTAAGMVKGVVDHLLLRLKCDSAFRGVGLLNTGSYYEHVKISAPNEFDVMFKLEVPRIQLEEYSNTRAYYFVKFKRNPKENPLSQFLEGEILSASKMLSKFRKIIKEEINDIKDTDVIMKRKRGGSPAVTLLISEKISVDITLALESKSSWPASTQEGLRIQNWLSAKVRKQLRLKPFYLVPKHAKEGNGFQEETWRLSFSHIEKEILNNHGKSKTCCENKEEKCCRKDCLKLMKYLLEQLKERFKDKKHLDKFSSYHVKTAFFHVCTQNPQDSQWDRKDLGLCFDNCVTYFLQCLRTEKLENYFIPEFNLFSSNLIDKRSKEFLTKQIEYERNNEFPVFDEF
On to “AACACTTCGTGGGGTCCTTT (antisense; 2'-MOE modified, pattern not given here) [HPRT-664 MOE]”, for which the “cGAS 100 nM” value amounted to 0.615.

Take “AATCCGCCCAAAGGGAACTG (antisense; 2'-MOE modified, pattern not given here) [HPRT-1027 MOE]”: the “cGAS 100 nM” value is reported as 0.494.

As for “ACAACCCCTTTCACCATCCC (antisense; 2'-MOE modified, pattern not given here) [MB21D1-689 MOE]”, the “cGAS 100 nM” value was found to be 0.658.

Take “ACAGTGTTGAGATACTCGGG (antisense; 2'-MOE modified, pattern not given here) [EGFR-3652 MOE]”: the “cGAS 100 nM” value was determined as 0.297.

For the sequence “ACCCACTTGGCAGACCATCA (antisense; 2'-MOE modified, pattern not given here) [CTNN2B-1575 MOE]”, the “cGAS 100 nM” value stood at 0.571.

Regarding “ACTGACTGTCTTGAGGGTTC (antisense; 2'-MOE modified, pattern not given here) [MB21D1-1483 MOE]”, the “cGAS 100 nM” value is 0.221.

As for “AGATCTGGCAGCCCATCAAC (antisense; 2'-MOE modified, pattern not given here) [CTNN2B-2516 MOE]”, the “cGAS 100 nM” value stood at 0.677.

In the case of “AGGTCTTGGCTTCGTGGAGC (antisense; 2'-MOE modified, pattern not given here) [MB21D1-522 MOE]”, the “cGAS 100 nM” value was found to be 0.118.

Regarding “ATCCAACACTTCGTGGGGTC (antisense; 2'-MOE modified, pattern not given here) [HPRT-668 MOE]”, the “cGAS 100 nM” value amounted to 0.744.

For “ATGTCCCCTGTTGACTGGTC (antisense; 2'-MOE modified, pattern not given here) [HPRT-489 MOE]”, the “cGAS 100 nM” value stood at 0.574.

Consider “ATGTCCCGCCACTGGATGCT (antisense; 2'-MOE modified, pattern not given here) [EGFR-727 MOE]”, for which the “cGAS 100 nM” value is on record as 0.549.

As to “ATGTGATGGCCTCCCATCTC (antisense; 2'-MOE modified, pattern not given here) [HPRT-333 MOE]”, the “cGAS 100 nM” value is listed as 0.439.

On to “CAACACTTCGTGGGGTCCTT (antisense; 2'-MOE modified, pattern not given here) [HPRT-665 MOE]”, for which the “cGAS 100 nM” value turned out to be 0.686.

As for “CAAGGCCCTTCGCACTTCTT (antisense; 2'-MOE modified, pattern not given here) [EGFR-1225 MOE]”, the “cGAS 100 nM” value is 0.490.

As to “CAATGTGATGGCCTCCCATC (antisense; 2'-MOE modified, pattern not given here) [HPRT-335 MOE]”, the “cGAS 100 nM” value stood at 0.362.

“CACCCACTTGGCAGACCATC (antisense; 2'-MOE modified, pattern not given here) [CTNN2B-1576 MOE]”: the “cGAS 100 nM” value was 0.658.

With “CAGATAGCACCTTCAGCACT (antisense; 2'-MOE modified, pattern not given here) [CTNN2B-1294 MOE]”, the “cGAS 100 nM” value is reported as 0.388.

Regarding “CCAACACTTCGTGGGGTCCT (antisense; 2'-MOE modified, pattern not given here) [HPRT-666 MOE]”, the “cGAS 100 nM” value worked out at 0.557.

On to “CGTGTCTGGAAGCTTCCTTT (antisense; 2'-MOE modified, pattern not given here) [CTNN2B-808 MOE]”, for which the “cGAS 100 nM” value was determined as 0.426.

Take “CTCTTGAAGCATCGTATCAC (antisense; 2'-MOE modified, pattern not given here) [CTNN2B-3648 MOE]”: the “cGAS 100 nM” value is on record as 0.791.

In the case of “CTGTGATCTTGACATGCTGC (antisense; 2'-MOE modified, pattern not given here) [EGFR-2790 MOE]”, the “cGAS 100 nM” value was 0.180.

For “CTTACTTTCCGAGGTGTCCA (antisense; 2'-MOE modified, pattern not given here) [CAMSAP1-1739 MOE]”, the “cGAS 100 nM” value is 0.473.

On to “GAACCACGTCTGCTCTAACA (antisense; 2'-MOE modified, pattern not given here) [CAMSAP1-1635 MOE]”, for which the “cGAS 100 nM” value is reported as 0.518.

On to “GAGGTCTTGGCTTCGTGGAG (antisense; 2'-MOE modified, pattern not given here) [MB21D1-523 MOE]”, for which the “cGAS 100 nM” value stood at 0.380.

In the case of “GAGTCTCTGGAGCTTCCTCT (antisense; 2'-MOE modified, pattern not given here) [CAMSAP1-2456 MOE]”, the “cGAS 100 nM” value amounted to 0.250.

As for “GATGCTCCTCGGTCTCCCTT (antisense; 2'-MOE modified, pattern not given here) [CAMSAP1-1850 MOE]”, the “cGAS 100 nM” value came out at 0.413.

On to “GATGGCCTCCCATCTCCTTC (antisense; 2'-MOE modified, pattern not given here) [HPRT-329 MOE]”, for which the “cGAS 100 nM” value was determined as 0.687.

For “GCCGCTTTTCTGTCTGGTTC (antisense; 2'-MOE modified, pattern not given here) [CTNN2B-311 MOE]”, the “cGAS 100 nM” value is reported as 0.401.

With “GCGACTATACGCGCAATATG (antisense; 2'-MOE modified, pattern not given here) [NC5 2′MOE]”, the “cGAS 100 nM” value stood at 0.720.

In the case of “GCGGAGGTCTTGGCTTCGTG (antisense; 2'-MOE modified, pattern not given here) [MB21D1-526 MOE]”, the “cGAS 100 nM” value was found to be 0.346.

With “GCGTATTATAGCCGATTAAC (antisense; 2'-MOE modified, pattern not given here) [NC1 2′MOE]”, the “cGAS 100 nM” value was 0.504.

For the sequence “GCGTGTCTGGAAGCTTCCTT (antisense; 2'-MOE modified, pattern not given here) [CTNN2B-809 MOE]”, the “cGAS 100 nM” value was determined as 0.241.

Turning to “GCTTCAGGCGCTGCCTTGCC (antisense; 2'-MOE modified, pattern not given here) [CAMSAP1-2709 MOE]”, the “cGAS 100 nM” value is given as 0.510.

As for “GGAGATTTCAGAGCAGCTTC (antisense; 2'-MOE modified, pattern not given here) [EGFR-4885 MOE]”, the “cGAS 100 nM” value was found to be 0.466.

Regarding “GGAGCTTCGAGGCCCCAGGC (MOE modified, pattern not given here) [MB21D1-616 MOE]”, the “cGAS 100 nM” value turned out to be 0.117.

As for “GGAGGTCTTGGCTTCGTGGA (antisense; 2'-MOE modified, pattern not given here) [MB21D1-524 MOE]”, the “cGAS 100 nM” value is recorded as 0.450.

For “GGCATCCACCACGTCGTCCA (antisense; 2'-MOE modified, pattern not given here) [EGFR-3266 MOE]”, the “cGAS 100 nM” value was determined as 0.478.

As to “GGGAAAGGTTATGCAAGGTC (antisense; 2'-MOE modified, pattern not given here) [CTNN2B-916 MOE]”, the “cGAS 100 nM” value is listed as 0.156.

For “GGTCCATACCCAAGGCATCC (antisense; 2'-MOE modified, pattern not given here) [CTNN2B-2446 MOE]”, the “cGAS 100 nM” value is on record as 0.531.

For the sequence “GGTGGTCCACAACCCCTTTC (antisense; 2'-MOE modified, pattern not given here) [MB21D1-697 MOE]”, the “cGAS 100 nM” value came out at 0.292.

On to “GGTGGTGGCCACCCATCTCA (antisense; 2'-MOE modified, pattern not given here) [CTNN2B-2479 MOE]”, for which the “cGAS 100 nM” value is on record as 0.456.

Regarding “GGTGTCCTTGCACGTGGCTT (antisense; 2'-MOE modified, pattern not given here) [EGFR-1016 MOE]”, the “cGAS 100 nM” value was 0.315.

Take “GTCCACATCCTGTGGCTCGT (antisense; 2'-MOE modified, pattern not given here) [CAMSAP1-2906 MOE]”: the “cGAS 100 nM” value was 0.455.

Turning to “GTCCTTGCACGTGGCTTCGT (antisense; 2'-MOE modified, pattern not given here) [EGFR-1013 MOE]”, the “cGAS 100 nM” value came to 0.374.

For the sequence “GTCTTGGCTTCGTGGAGCAG (antisense; 2'-MOE modified, pattern not given here) [MB21D1-520 MOE]”, the “cGAS 100 nM” value was determined as 0.291.

For “GTGTCCTTGCACGTGGCTTC (antisense; 2'-MOE modified, pattern not given here) [EGFR-1015 MOE]”, the “cGAS 100 nM” value stood at 0.384.

With “GTGTCTTCATCGGCCCTGCC (antisense; 2'-MOE modified, pattern not given here) [CAMSAP1-2113 MOE]”, the “cGAS 100 nM” value is reported as 0.606.

For “TAGGCACTTTGCCTCCTTCT (antisense; 2'-MOE modified, pattern not given here) [EGFR-2859 MOE]”, the “cGAS 100 nM” value is 0.378.

Turning to “TAGTCAAGGGCATATCCTAC (antisense; 2'-MOE modified, pattern not given here) [HPRT-732 MOE]”, the “cGAS 100 nM” value was determined as 0.848.

Regarding “TCAAAGGACTGAGGAAAGGG (antisense; 2'-MOE modified, pattern not given here) [CAMSAP1-6273 MOE]”, the “cGAS 100 nM” value turned out to be 0.634.

For the sequence “TCCAACACTTCGTGGGGTCC (antisense; 2'-MOE modified, pattern not given here) [HPRT-667 MOE]”, the “cGAS 100 nM” value is listed as 0.799.

For the sequence “TCGCACTTCAGTCTGAGCAG (antisense; 2'-MOE modified, pattern not given here) [MB21D1-719 MOE]”, the “cGAS 100 nM” value stood at 0.305.

For “TGTCCTTGCACGTGGCTTCG (antisense; 2'-MOE modified, pattern not given here) [EGFR-1014 MOE]”, the “cGAS 100 nM” value amounted to 0.515.

In the case of “TGTCTTCATCGGCCCTGCCT (antisense; 2'-MOE modified, pattern not given here) [CAMSAP1-2112 MOE]”, the “cGAS 100 nM” value was determined as 0.557.

In the case of “TGTGATGGCCTCCCATCTCC (antisense; 2'-MOE modified, pattern not given here) [HPRT-332 MOE]”, the “cGAS 100 nM” value came out at 0.438.

As to “TTCTGCAGCTTCCTTGTCCT (antisense; 2'-MOE modified, pattern not given here) [CTNN2B-2136 MOE]”, the “cGAS 100 nM” value is given as 0.821.
